Assay results published in ChEMBL document CHEMBL1149131, “QSAR study of anticonvulsant negative allosteric modulators of the AMPA receptor” (J Med Chem, 2004).

How the values were obtained:
[1] = target: T1, Glutamate receptor ionotropic, AMPA (Mus musculus) (UniProt P23819+P23818+Q9Z2W8+Q9Z2W9); experiment: In vivo anticonvulsant activity was measured as median effective dose required to prevent clonic phase of seizure in DBA/2 mice; assay type: functional, organism-based
[2] = target: T1, Glutamate receptor ionotropic, AMPA (Mus musculus); experiment: In vivo anticonvulsant activity was measured as median effective dose required to prevent tonic phase of seizure in DBA/2 mice; assay type: functional, organism-based

T1 sequence (P23818 whole entry, looked up): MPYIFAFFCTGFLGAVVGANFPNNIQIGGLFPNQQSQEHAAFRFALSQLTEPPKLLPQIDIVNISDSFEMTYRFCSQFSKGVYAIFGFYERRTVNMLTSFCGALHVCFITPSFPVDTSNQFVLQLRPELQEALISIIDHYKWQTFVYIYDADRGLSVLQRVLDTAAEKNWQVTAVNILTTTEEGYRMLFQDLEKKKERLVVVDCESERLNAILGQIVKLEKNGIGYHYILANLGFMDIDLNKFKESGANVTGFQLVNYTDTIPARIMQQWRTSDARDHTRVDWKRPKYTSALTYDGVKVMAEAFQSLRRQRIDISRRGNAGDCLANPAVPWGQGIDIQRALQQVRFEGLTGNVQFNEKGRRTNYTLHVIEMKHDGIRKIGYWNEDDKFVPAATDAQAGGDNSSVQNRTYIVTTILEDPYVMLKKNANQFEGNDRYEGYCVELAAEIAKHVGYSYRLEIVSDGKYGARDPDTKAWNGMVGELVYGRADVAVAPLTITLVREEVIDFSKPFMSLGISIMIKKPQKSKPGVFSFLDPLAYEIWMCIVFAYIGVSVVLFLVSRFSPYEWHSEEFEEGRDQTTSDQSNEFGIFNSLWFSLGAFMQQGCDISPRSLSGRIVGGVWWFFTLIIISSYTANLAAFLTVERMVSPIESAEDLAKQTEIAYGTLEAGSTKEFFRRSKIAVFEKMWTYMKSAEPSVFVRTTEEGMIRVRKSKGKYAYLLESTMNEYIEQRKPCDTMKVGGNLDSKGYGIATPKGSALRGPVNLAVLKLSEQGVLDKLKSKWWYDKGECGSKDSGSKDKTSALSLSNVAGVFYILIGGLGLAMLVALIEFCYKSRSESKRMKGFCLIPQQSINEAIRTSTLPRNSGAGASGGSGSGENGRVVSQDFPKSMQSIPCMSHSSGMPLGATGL
T1 sequence (P23819 whole entry, looked up): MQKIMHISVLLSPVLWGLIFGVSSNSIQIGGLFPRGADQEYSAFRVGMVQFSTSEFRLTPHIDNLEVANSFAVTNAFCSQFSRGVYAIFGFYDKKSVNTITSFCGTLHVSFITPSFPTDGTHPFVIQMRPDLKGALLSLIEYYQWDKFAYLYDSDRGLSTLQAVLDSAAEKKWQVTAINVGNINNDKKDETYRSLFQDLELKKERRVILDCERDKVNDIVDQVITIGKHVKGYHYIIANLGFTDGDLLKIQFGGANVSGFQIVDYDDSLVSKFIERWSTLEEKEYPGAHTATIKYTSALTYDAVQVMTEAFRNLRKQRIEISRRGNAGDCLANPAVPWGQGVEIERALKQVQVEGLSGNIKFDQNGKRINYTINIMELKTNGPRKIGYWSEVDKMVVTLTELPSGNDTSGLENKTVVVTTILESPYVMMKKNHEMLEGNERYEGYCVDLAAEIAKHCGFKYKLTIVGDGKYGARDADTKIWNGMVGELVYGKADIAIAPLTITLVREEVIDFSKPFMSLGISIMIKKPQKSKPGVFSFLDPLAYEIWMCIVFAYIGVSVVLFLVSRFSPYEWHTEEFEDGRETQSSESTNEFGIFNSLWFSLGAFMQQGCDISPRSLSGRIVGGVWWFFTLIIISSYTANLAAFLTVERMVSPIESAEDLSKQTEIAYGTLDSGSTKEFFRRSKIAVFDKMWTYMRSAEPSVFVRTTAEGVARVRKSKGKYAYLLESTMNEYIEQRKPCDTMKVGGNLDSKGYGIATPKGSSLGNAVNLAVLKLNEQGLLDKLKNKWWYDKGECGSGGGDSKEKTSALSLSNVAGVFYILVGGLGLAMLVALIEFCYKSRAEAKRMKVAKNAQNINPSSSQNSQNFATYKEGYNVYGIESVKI
T1 sequence (Q9Z2W8 whole entry, looked up): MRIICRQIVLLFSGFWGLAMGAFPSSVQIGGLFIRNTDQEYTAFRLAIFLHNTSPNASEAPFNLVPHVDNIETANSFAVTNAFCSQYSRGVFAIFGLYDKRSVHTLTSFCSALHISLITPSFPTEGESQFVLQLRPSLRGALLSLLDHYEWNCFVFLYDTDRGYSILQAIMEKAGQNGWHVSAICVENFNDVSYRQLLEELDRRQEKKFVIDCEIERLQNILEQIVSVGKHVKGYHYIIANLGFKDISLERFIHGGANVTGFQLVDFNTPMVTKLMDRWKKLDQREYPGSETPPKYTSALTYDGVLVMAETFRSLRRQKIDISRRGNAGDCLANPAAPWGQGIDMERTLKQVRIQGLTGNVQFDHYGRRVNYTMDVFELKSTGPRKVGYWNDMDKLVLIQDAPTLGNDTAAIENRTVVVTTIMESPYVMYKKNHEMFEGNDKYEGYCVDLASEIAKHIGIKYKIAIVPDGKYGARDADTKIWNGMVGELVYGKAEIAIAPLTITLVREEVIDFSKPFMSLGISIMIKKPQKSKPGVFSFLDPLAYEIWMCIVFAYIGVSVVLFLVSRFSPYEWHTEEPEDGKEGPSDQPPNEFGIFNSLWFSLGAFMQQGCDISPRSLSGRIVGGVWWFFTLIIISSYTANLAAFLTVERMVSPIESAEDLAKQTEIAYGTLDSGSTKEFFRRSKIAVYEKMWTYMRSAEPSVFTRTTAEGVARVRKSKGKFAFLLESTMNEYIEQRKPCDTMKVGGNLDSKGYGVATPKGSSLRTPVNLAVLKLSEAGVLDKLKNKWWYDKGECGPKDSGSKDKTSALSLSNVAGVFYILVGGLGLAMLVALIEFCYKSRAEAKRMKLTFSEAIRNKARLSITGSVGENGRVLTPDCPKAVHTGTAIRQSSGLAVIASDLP
T1 sequence (Q9Z2W9 whole entry, looked up): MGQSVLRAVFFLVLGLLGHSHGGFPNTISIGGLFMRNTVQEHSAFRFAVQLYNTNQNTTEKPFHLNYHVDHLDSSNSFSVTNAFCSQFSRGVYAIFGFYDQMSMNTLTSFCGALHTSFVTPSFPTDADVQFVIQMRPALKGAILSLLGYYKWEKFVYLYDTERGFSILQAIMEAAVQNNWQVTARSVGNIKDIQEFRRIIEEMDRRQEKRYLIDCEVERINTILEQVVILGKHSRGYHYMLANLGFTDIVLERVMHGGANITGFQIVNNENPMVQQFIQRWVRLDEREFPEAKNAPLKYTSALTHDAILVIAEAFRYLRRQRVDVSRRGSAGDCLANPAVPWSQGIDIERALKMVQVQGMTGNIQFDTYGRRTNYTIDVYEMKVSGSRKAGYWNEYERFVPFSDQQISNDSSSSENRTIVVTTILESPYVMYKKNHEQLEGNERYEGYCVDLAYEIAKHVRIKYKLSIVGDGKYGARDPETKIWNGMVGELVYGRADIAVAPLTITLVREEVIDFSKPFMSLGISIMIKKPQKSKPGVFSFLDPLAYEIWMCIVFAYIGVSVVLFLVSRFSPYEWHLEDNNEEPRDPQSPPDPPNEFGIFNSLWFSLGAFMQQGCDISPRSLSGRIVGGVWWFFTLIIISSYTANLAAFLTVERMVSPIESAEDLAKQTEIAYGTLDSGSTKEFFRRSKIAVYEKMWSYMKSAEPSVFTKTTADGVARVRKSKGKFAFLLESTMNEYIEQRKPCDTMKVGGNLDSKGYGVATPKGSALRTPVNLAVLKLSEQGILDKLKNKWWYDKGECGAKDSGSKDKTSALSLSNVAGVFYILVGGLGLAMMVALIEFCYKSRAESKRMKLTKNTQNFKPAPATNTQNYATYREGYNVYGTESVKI

Structure (SMILES)	ED50 [1] [µmol/kg]	ED50 [2] [µmol/kg]
COc1cc2c(cc1OC)C(c1ccccc1)=NNC(=O)C2	33.9	31.8
CNC(=O)n1nc(-c2ccc(N)cc2)c2cc3c(cc2c1=O)OCO3	23.4	16.8
CN1N=C(c2ccccc2)c2cc3c(cc2CC1=O)OCO3	82.5	70.4
COc1cc2c(cc1OC)C(c1ccc(Cl)cc1)=NN=C(S)C2	82.4	55
O=C1Cc2cc3c(cc2C(c2ccc(F)cc2)=NN1)OCO3	89.8	63.8
CCCNC(=O)n1nc(-c2ccc(N)cc2)c2cc3c(cc2c1=O)OCO3	15.8	6.82
COc1cc2c(cc1OC)C(c1ccc(Cl)cc1)=NNC(=O)C2	102	75.3
O=C1Cc2cc3c(cc2C(c2ccc(O)cc2)=NN1)OCO3	52.3	49.6
COc1ccc2c(c1)CC(=O)NN1C(c3ccccc3)=NOC21c1ccccc1 (configuration not stated)	119	100
COc1cc2c(cc1OC)C(c1cccc(N)c1)=NNC(=O)C2	19.3	18.3
COc1cc2c(O)nnc(-c3ccc(NC(C)=O)cc3)c2cc1OC	62	48.8
COc1cc2c(cc1OC)C(c1cccc(N)c1)=NN(C)C(=O)C2	36.8	30.6
COc1cc2c(cc1OC)C(c1ccc(F)cc1)=NNC(=O)C2	78	57.2
CN1N=C(c2ccc(N)cc2)c2cc3c(cc2CC1=O)OCO3	41.1	29.5
COc1cc2c(cc1OC)C(c1ccc([N+](=O)[O-])cc1)=Nn1c(O)nnc1C2	74.1	58.3
COc1cc2c(cc1OC)C(c1ccc([N+](=O)[O-])cc1)=NN=C(S)C2	93.4	69.8
Oc1nnc(-c2ccccc2)c2cc3c(cc12)OCO3	36.7	31.3
COc1cc2c(cc1OC)C(c1ccc(N)cc1)=NN=C(S)C2	6.3	3.3
COc1cc2c(O)nnc(-c3cccc([N+](=O)[O-])c3)c2cc1OC	81.7	75.5
COc1ccc2c(c1)CC(=O)NN=C2c1ccccc1	75.5	64.8
COc1cc2c(cc1OC)C(c1ccccc1)=NN(C)C(=S)C2	30.6	24.7

Structure (SMILES)	ED50 [1] [µmol/kg]	ED50 [2] [µmol/kg]
COc1cc2c(cc1OC)C(c1ccc(N)cc1)=Nn1c(O)nnc1C2	16.1	10.2
COc1cc2c(cc1OC)C(c1cccc([N+](=O)[O-])c1)=Nn1c(O)nnc1C2	56.4	43.2
COc1cc2c(cc1OC)C(c1ccc(N(C(C)=O)C(C)=O)cc1)=NN(C(C)=O)C(=O)C2	56.8	43.9
COc1cc2c(cc1OC)C(c1ccc([N+](=O)[O-])cc1)NCC2 (configuration not stated)	100	56.1
COc1cc2c(cc1OC)C(c1ccc(Cl)cc1)=NN(C)C(=O)C2	41.2	38.6
COc1cc2c(cc1OC)C(c1ccccc1)=NN=C(S)C2	19.7	15
COc1cc2c(cc1OC)C(c1ccc(Br)cc1)NCC2 (configuration not stated)	30.6	12.5
Nc1ccc(C2=NNC(=O)Cc3cc4c(cc32)OCO4)cc1	15.4	10.9
COc1cc2c(cc1OC)C(c1ccc([N+](=O)[O-])cc1)=Nn1c(C)nnc1C2	66.7	59.3
COc1cc2c(cc1OC)C(c1ccccc1)=NN(C(C)=O)C(=O)C2	101	72.1
Nc1cccc(-c2nnc(O)c3cc4c(cc23)OCO4)c1	23.3	15.7
COc1cc2c(O)nnc(-c3cccc(N)c3)c2cc1OC	68.3	59.9
CNC(=O)N1N=C(c2ccc(N)cc2)c2cc3c(cc2CC1=O)OCO3	12.4	8.7
COc1cc2c(cc1OC)C(c1ccc(Br)cc1)=NNC(=O)C2	110	82.5
COc1cc2c(cc1OC)C(c1ccc(F)cc1)=Nn1c(O)nnc1C2	32.1	21.8
COc1cc2c(cc1OC)C(c1cccc(N)c1)=NN=C(S)C2	18.8	9.1
COc1cc2c(-c3cccc([N+](=O)[O-])c3)nn(C)c(=O)c2cc1OC	110	80.3
COc1cc2c(cc1OC)C(c1cccc([N+](=O)[O-])c1)NCC2 (configuration not stated)	19.3	7.19
COc1cc2c(cc1OC)C(c1ccc(Cl)cc1)NCC2 (configuration not stated)	20.1	19.3
Nc1ccc(-c2nnc(O)c3cc4c(cc23)OCO4)cc1	21.2	7.56
COc1cc2c(cc1OC)C(c1ccc(N)cc1)=NNC(=O)C2	15	12.6

Structure (SMILES)	ED50 [1] [µmol/kg]	ED50 [2] [µmol/kg]
COc1cc2c(cc1OC)C(c1ccc(Br)cc1)=NN(C)C(=S)C2	105	60.4
COc1cc2c(O)nnc(-c3ccc(N)cc3)c2cc1OC	60.5	52
COc1cc2c(cc1OC)C(c1ccc(Br)cc1)=NN=C(S)C2	52.1	33.3
COc1cc2c(-c3cccc(N)c3)nn(C)c(=O)c2cc1OC	63.7	55.2
COc1cc2c(cc1OC)C(c1ccc(N)cc1)=NN(C)C(=S)C2	29.8	20.3
COc1cc2c(cc1OC)C(c1ccccc1)=Nn1c(O)nnc1C2	44.6	27.5
O=C1Cc2cc3c(cc2C(c2ccccc2)=NN1)OCO3	43.3	40.6
COc1cc2c(cc1OC)C(c1ccc(N)cc1)=Nn1c(C)nnc1C2	59.9	44.7
COc1cc2c(cc1OC)C(c1ccccc1)=NN(C)C(=O)C2	37.8	26.7
COc1cc2c(cc1OC)C(c1ccc(N)cc1)=Nn1cnnc1C2	57.3	48.3
Nc1cccc(C2=NNC(=O)Cc3cc4c(cc32)OCO4)c1	18	12.7
COc1cc2c(cc1OC)C(c1cccc(N)c1)=Nn1c(O)nnc1C2	20.1	13.1
COc1cc2c(cc1OC)C(c1ccc(N)cc1)=NN(C)C(=O)C2	50.2	43.7
CC1=NN=C(c2ccc(N)cc2)c2cc3c(cc2C1)OCO3	35.8	25.3
SC1=NN=C(c2ccccc2)c2cc3c(cc2C1)OCO3	23.8	18.8
COc1cc2c(cc1OC)C(c1ccc([N+](=O)[O-])cc1)=NN(C)C(=S)C2	103	81.5
COc1ccc2c(c1)CC(=O)N(C)N=C2c1ccccc1	117	99.1
COc1cc2c(cc1OC)C(c1ccc(Br)cc1)=NN(C)C(=O)C2	63	38
COc1cc2c(cc1OC)C(c1cccc([N+](=O)[O-])c1)N(C(C)=O)CC2 (configuration not stated)	37.2	12.7
